Where “and” joins values, the source holds several entries; their conditions need not be identical. Equal values may be shown once.
Tests used:
[1] = system: intraocular tissue (retinal tissue incl. photoreceptor cell layer, vitreous body) of Zebrafish 7-day-old embryo; assay: Staining of intraocular tissue of Zebrafish fry by exposure to staining liquid, ocular tissue section observed by confocal microscope; assay type: in vivo; settings: Zebrafish 7 dpf fry, 1 μg/mL, 1 hour exposure, fixed ocular section
[2] = Excitation and fluorescence wavelengths by fluorescence spectrometer FL4500; assay type: physicochemical; settings: aqueous solution: 10 mg/mL DMSO solution diluted to 1/500 with purified water (Examples 1 to 94); in nm (unit assumed)

Row | SMILES | λem (fluorescence wavelength) [2] | λex (excitation wavelength) [2] | Staining ability [1] | Stained site [1]
1 | C=CCN1C(=O)S/C(=c2/s/c(=C/c3ccc4c(c3)C3CCCC3N4c3ccccc3)c(=O)n2CC(=O)OCC)C1=O (stereo not drawn) [Compound 51] | 638 | 580 | ++ | 
2 | COc1ccc(N2c3ccc(/C=c4/s/c(=C5/SC(=O)N(Cc6ccccc6)C5=O)n(CC(=O)O)c4=O)cc3C3CCCC32)cc1 (stereo not drawn) [Compound 53] | 712 | 568 | ++ | 
3 | CCOC(=O)Cn1c(=O)/c(=C\c2ccc3c(c2)C2CCCC2N3c2ccc3cc(OC)ccc3c2)s/c1=C1/SC(=O)N(CC)C1=O (stereo not drawn) [Compound 54] | 647 | 597 | ++ | 
4 | O=C(O)CN1C(=O)/C(=C\c2cc(Br)c3c(c2)C2CCCC2N3Cc2ccccc2)SC1=S (stereo not drawn) [Compound 56] | 606 | 486 | ++ | 
5 | CCCCCCCCN1C(=O)S/C(=c2/s/c(=C/c3ccc4c(c3)C3CCCC3N4c3ccc(C=C(c4ccccc4)c4ccccc4)cc3)c(=O)n2CC(=O)OCC)C1=O (stereo not drawn) [Compound 57] | 671 | 590 | ++ | 
6 | CCCCCCCCN1C(=O)S/C(=c2/s/c(=C/c3ccc4c(c3)C3CCCC3N4c3ccccc3)c(=O)n2CC(=O)OCC)C1=O (stereo not drawn) [Compound 59] | 625 | 581 | ++ | 
7 | O=C(O)C[n+]1c(/C=C/c2ccc3c(c2)C2CCCC2N3c2ccccc2)sc2ccccc21.[Br-] (stereo not drawn) [Compound 61] | 636 | 545 | ++ | 
8 | O=C(O)C[n+]1c(/C=C/c2ccc3c(c2)C2CCCC2N3Cc2ccccc2)sc2ccccc21.[Br-] (stereo not drawn) [Compound 63] | 611 | 566 | ++ | 1
9 | COc1ccc2cc(N3c4ccc(/C=C/c5sc6ccccc6[n+]5CC(=O)O)cc4C4CCCC43)ccc2c1.[Br-] (stereo not drawn) [Compound 64] | 516 | 401 | ++ | 2
10 | O=C(O)C[n+]1c(/C=C/c2ccc3c(c2)C2CCCC2N3c2ccc(C=C(c3ccccc3)c3ccccc3)cc2)oc2ccccc21.[Br-] (stereo not drawn) [Compound 65] | 657 | 570 | ++ | 1
11 | CCCCN1C(=O)/C(=c2\s/c(=C/c3ccc4c(c3)C3CCCC3N4c3ccccc3)c(=O)n2CC(=O)OCC)SC1=S (stereo not drawn) [Compound 69] | 609 | 653 | ++ | 
12 | CCN1C(=O)/C(=c2\s/c(=C/c3cc(Br)c4c(c3)C3CCCC3N4Cc3ccccc3)c(=O)n2CC(=O)O)SC1=S (stereo not drawn) [Compound 73] | 649 | 548 | ++ | 
13 | COc1ccc(N2c3ccc(/C=C/C4=[N+](CCC(=O)O)c5ccc6ccccc6c5C4(C)C)cc3C3CCCC32)cc1.[I-] (stereo not drawn) [Compound 75] | 683 | 619 | ++ | 1
14 | COc1ccc(N2c3ccc(/C=C/c4sc5ccccc5[n+]4CCC(=O)O)cc3C3CCCC32)cc1 (stereo not drawn) [Compound 77] | 668 | 583 | ++ | 
15 | CCN1C(=S)S/C(=c2/s/c(=C/c3ccc4c(c3)C3CCCC3N4c3ccc(C=C(c4ccccc4)c4ccccc4)cc3)c(=O)n2CC(=O)O)C1=S (stereo not drawn) [Compound 79] | 702 | 567 | ++ | 
16 | CCOC(=O)Cn1c(=Cc2sc3ccccc3[n+]2C)sc(=Cc2ccc3c(c2)C2CCCC2N3c2ccc(C=C(c3ccccc3)c3ccccc3)cc2)c1=O.[Br-] (stereo not drawn) [Compound 84] | 718 | 599 | ++ | 2
17 | CCCCNc1ccc2c3c(cccc13)C(=O)N(CCCC)C2=O [Compound 87] | 551 | 466 | ++ | 
18 | CCN(CC)c1ccc2c(-c3ccc(S(=O)(=O)NCCC(=O)O)cc3S(=O)(=O)O)c3ccc(=[N+](CC)CC)cc-3oc2c1.[Na+] [Compound 95] | 578 and 590 | 509 and 528 | ++ | 
19 | C=CCN1C(=O)/C(=C2\S/C(=C/c3ccc4c(c3)C3CCCC3N4c3ccccc3)CN2CC(=O)O)SC1=S (stereo not drawn) [Compound 98] | 690 | 510 | ∘ | 
20 | C[n+]1c(C=c2sc(=Cc3ccc4c(c3)C3CCCC3N4c3ccc(C=C(c4ccccc4)c4ccccc4)cc3)c(=O)n2CC(=O)O)sc2ccccc21.[Br-] (stereo not drawn) [Compound 101] | 760 | 560 | ∘ | 1
21 | CCn1c(=C2SC(=S)N(CC(=O)O)C2=O)sc(=Cc2ccc3c(c2)C2CCCC2N3c2ccccc2)c1=O (stereo not drawn) [Compound 102] | 700 | 590 | ∘ | 1

Further lines, with some results ahead:

Row | λem (fluorescence wavelength) [2] | λex (excitation wavelength) [2] | SMILES | Staining ability [1] | Stained site [1]
22 | 638 | 580 | CCOC(=O)CN1C(=O)/C(=C\c2ccc3c(c2)C2CCCC2N3c2ccccc2)SC1=S (stereo not drawn) [Compound 52] | ++ | 
23 | 644 | 502 | CCN1C(=O)S/C(=c2/s/c(=C/c3ccc4c(c3)C3CCCC3N4c3ccccc3)c(=O)n2CC(=O)O)C1=O (stereo not drawn) [Compound 55] | ++ | 
24 | 676 | 546 | CCCCCCCCN1C(=O)S/C(=c2/s/c(=C/c3ccc4c(c3)C3CCCC3N4c3ccc(OC)cc3)c(=O)n2CC(=O)OCC)C1=O (stereo not drawn) [Compound 58] | ++ | 
25 | 677 | 560 | COc1ccc(N2c3ccc(/C=C/c4sc5ccccc5[n+]4CC(=O)O)cc3C3CCCC32)cc1.[Br-] (stereo not drawn) [Compound 60] | ++ | 2
26 | 675 | 610 | O=C(O)C[n+]1c(/C=C/c2ccc3c(c2)C2CCCC2N3c2ccc(C=C(c3ccccc3)c3ccccc3)cc2)sc2ccccc21.[Br-] (stereo not drawn) [Compound 62] | ++ | 2
27 | 699 | 570 | CCN1C(=O)/C(=c2\s/c(=C/c3ccc4c(c3)C3CCCC3N4c3ccc(SC)cc3)c(=O)n2CC(=O)O)SC1=S (stereo not drawn) [Compound 67] | +++ | 
28 | 527 | 450 | CCCCN1C(=O)/C(=c2\s/c(=C/c3ccc4c(c3)C3CCCC3N4c3ccc(OC)cc3)c(=O)n2CC(=O)OCC)SC1=S (stereo not drawn) [Compound 68] | ++ | 
29 | 671 | 592 | COc1ccc(N2c3ccc(/C=C/C4=[N+](CCC(=O)O)c5ccccc5C4(C)C)cc3C3CCCC32)cc1.[I-] (stereo not drawn) [Compound 71] | ++ | 
30 | 669 | 614 | COc1ccc(N2c3ccc(/C=C/C4=[N+](C)c5ccccc5C4(C)C)cc3C3CCCC32)cc1.[Br-] (stereo not drawn) [Compound 74] | ++ | 1
31 | 724 | 674 | CC1(C)C(/C=C/c2ccc3c(c2)C2CCCC2N3c2ccc(C=C(c3ccccc3)c3ccccc3)cc2)=[N+](CCC(=O)O)c2ccc3ccccc3c21 (stereo not drawn) [Compound 76] | ++ | 
32 | 726 | 598 | O=C(O)CC[n+]1c(/C=C/c2ccc3c(c2)C2CCCC2N3c2ccc(C=C(c3ccccc3)c3ccccc3)cc2)sc2ccccc21.[I-] (stereo not drawn) [Compound 78] | ++ | 1
33 | 673 | 551 | CCN1C(=O)/C(=c2/s/c(=C/c3ccc4c(c3)C3CCCC3N4c3ccc(C=C(c4ccccc4)c4ccccc4)cc3)c(=O)n2CC(=O)O)SC1=S (stereo not drawn) [Compound 80] | ++ | 
34 | 721 | 591 | CC[n+]1c(C=c2sc(=Cc3ccc4c(c3)C3CCCC3N4c3ccc(C=C(c4ccccc4)c4ccccc4)cc3)c(=O)n2-c2ccccc2)sc2ccccc21.[Br-] (stereo not drawn) [Compound 82] | +++ | 2
35 | 682 | 605 | COc1ccc(N2c3ccc(/C=C/c4sc5c6ccccc6ccc5[n+]4CCC(=O)O)cc3C3CCCC32)cc1.[I-] (stereo not drawn) [Compound 83] | ++ | 2
36 | 503 | 353 | CC[n+]1c(C=C2SCC(=O)N2c2ccccc2)sc2ccccc21.[Br-] [Compound 85] | ++ | 2
37 | 671 | 623 | CCN1C(=O)/C(=c2\s/c(=C/c3ccc4c(c3)C3CCCC3N4CC)c(=O)n2CC)SC1=S (stereo not drawn) [Compound 86] | ++ | 
38 | 503 | 450 | CCOC(=O)c1cc(/C=C/C=C/c2sc3ccccc3[n+]2CC(=O)O)c2cccccc1-2.[Br-] [Compound 88] | ++ | 1
39 | 550 | 528 | CC/N=c1\cc2oc3cc(NCC)c(C)cc3c(-c3ccccc3C(=O)CC)c-2cc1C [Compound 90] | ++ | 
40 | 680 | 530 | C=CCN1C(=O)/C(=c2\s/c(=C/c3ccc4c(c3)C3CCCC3N4c3ccc(OC)cc3)c(=O)n2CC(=O)O)SC1=S (stereo not drawn) [Compound 97] | ∘ | 

Reference: patent publication US9764046B2, “Labeling composition for intraocular tissue, labeling method of intraocular tissue, and screening method” (CANON KABUSHIKI KAISHA, priority 2008, dated 2017)
